Values quoted from earlier work, collected in US11318122B2, “Pharmaceutical combination and its use for treating synucleinopathties” (CHASE THERAPEUTICS CORPORATION, priority 2017, dated 2022).

Key:
[1] = system: dopaminergic neurons
[2] = biological target: human wild-type alpha-synuclein (Homo sapiens, UniProt P37840); settings: by H2O2 plus cytochrome c
[3] = biological target: alpha-synuclein in human neuroblastoma SH5Y cells (Homo sapiens, UniProt P37840)
[4] = biological target: synuclein (Homo sapiens, UniProt P37840)
[5] = doses approved for the treatment of motor symptoms of PD; 535 PD patients
[6] = 5 mg/day of pramipexole
[7] = system: extracellular concentrations of norepinephrine and dopamine; settings: large doses, rodents, acute systemic administration
[8] = system: MPTP-induced damage; settings: toxin-induced model of PD
[9] = system: 6-OHDA (6-hydroxydopamine)-induced damage; settings: toxin-induced model of PD

SMILES | toxic effects of rotenone on dopaminergic neurons ([1]; mouse PD model) | immunoreactivity for alpha-synuclein ([1]; rotenone mouse PD model) | in vitro oligomerization of human wild-type alpha-synuclein [2] | aggregation of alpha-synuclein [3] | synuclein oligomer formation in vitro [4] | neuroprotective (disease modifying) activity [5] | nausea [6] | vomiting [6] | patients not able to complete the study ([6]; presumably because of intolerable GI adverse events) | extracellular concentrations of norepinephrine and dopamine [7] | protection against MPTP-induced damage [8] | protection against 6-OHDA-induced damage [9]
CCCN[C@H]1CCc2nc(N)sc2C1 [pramipexole, (S)-6-propylamino-4,5,6,7-tetrahydro-1,3-benzothiazole-2-amine] | inhibits the toxic effects of rotenone | reducing immunoreactivity | decreases the in vitro oligomerization | inhibit the aggregation | diminishes synuclein oligomer formation | failed to evidence neuroprotective (i.e., disease modifying) activity | 76 % of patients | 39 % of patients | 36 % of patients |  |  | 
CNCCC(Oc1ccc(C(F)(F)F)cc1)c1ccccc1 (stereo not drawn) [fluoxetine, 1-methylamino-3-phenyl-3-[4-(trifluoromethyl)phenoxy]propane] |  |  |  |  |  |  |  |  |  | significant increase | can protect | can protect
